For the assay, the target named is VicR (Streptococcus mutans, UniProt I6L8Z5). Kind of assay: bio-layer interferometry, biotinylated 2B5 on streptavidin sensors; pulldown of recombinant VicR and VicR-N. It is filed as binding. On the set-up: gene covR; recombinant VicR; VicR-N (1 to 125 amino acid residues) also captured, VicR-C (126 to 235) not captured. A general note: In BLI a coated tip is dipped into the sample, and binding shifts an interference pattern.
Chain of VicR (I6L8Z5 entry or part of it): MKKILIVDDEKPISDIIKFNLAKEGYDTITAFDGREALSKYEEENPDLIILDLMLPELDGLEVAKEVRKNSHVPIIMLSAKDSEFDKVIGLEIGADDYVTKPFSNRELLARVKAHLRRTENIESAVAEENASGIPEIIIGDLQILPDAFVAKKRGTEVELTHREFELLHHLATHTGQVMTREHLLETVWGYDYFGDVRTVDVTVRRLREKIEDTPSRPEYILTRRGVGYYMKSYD

By Kd is commonly meant a measure of binding affinity in units of concentration. `CCCCCCCCCCCCCCCCN(CCCCCCc1cn(CCNC(=O)CCCC[C@@H]2SC[C@@H]3NC(=O)N[C@@H]32)nn1)C(=O)CCCc1c[nH]c(N)n1` [Bio2B5, biotinylated 2B5]: the Kd was 38 ± 6.3 µM.

These data come from article PMC10294662, “Small Molecule Attenuates Bacterial Virulence by Targeting Conserved Response Regulator” (mBio, 2023).
